{"source": "paper PMC11309765", "about": "“Mechanism of the blood-brain barrier modulation by cadherin peptides” (Exploration of drug science, 2024)", "key": {"EC1 domain of E-cadherin": {"tested_on": "EC1 domain of E-cadherin", "details": "cited from earlier work", "description": "The BBB paracellular porosity can be magnified by Ala-Asp-Thr (ADT) and His-Ala-Val (HAV) peptides that were derived from cadherin sequences to inhibit cadherin-cadherin interactions. The ADT and HAV peptides were designed from the amino acid sequences of the bulge and grove regions in the cadherin EC1 domain, respectively. As BBB modulators (BBBMs), both ADT and/or HAV peptides enhanced brain depositions of various sizes of molecules to the brain parenchyma such as IRdye 800CW, ^3H-daunomycin, adenanthin, or gadolinium-diethylenetriaminepentacetate (Gd-DTPA or gadopent ... || Figure 6. The proposed mechanisms of binding for Ala-Asp-Thr (ADT) and His-Ala-Val (HAV) peptides to extracellular-1 (EC1) domain of cadherin to inhibit cadherin-cadherin interactions. (A) A model to represent cadherin-to-cadherin interactions in the paracellular pathway at the adherens junction. First is the cis-interaction of EC1 and EC2 on two cadherin proteins that are protruding from one side of cell membranes. Second is the trans-interaction of EC1-EC1 from two cadherins that reside in two opposite membranes; (B) the EC1-EC1 interaction with domain swapping between the N-terminal Trp2 an ... || We hypothesized that HAV and ADT peptides prevent cadherin-cadherin interactions by binding to EC1 in the BBB adherens junctions (Figure 6C and D). Cadherin peptides disrupt the integrity of cell-cell adhesion in dynamics and reversible fashion in paracellular pathways of the BBB. Thus, the NMR and molecular docking experiments were carried out to determine the EC1 binding properties of ADT peptides."}, "BBB [1]": {"tested_on": "BBB", "details": "in vivo; cited from earlier work", "description": "As BBBMs, the in vivo activities of ADT and HAV peptides to modulate the BBB were transient and reversible. […] Different cadherin peptides produced different durations of the BBB opening for different sizes of del ..."}, "[2]": {"tested_on": "blood-brain barrier (BBB)", "details": "cited from earlier work", "description": "In addition, Gd-DTPA delivery to the brain was enhanced when co-administered with ADTC5 in living mice upon detection with magnetic resonance imaging (MRI). […] Different cadherin peptides produced different durations of the BBB opening for different sizes of del ..."}, "BBB [3]": {"tested_on": "BBB", "set-up": "method as in 3 sources, ref 49 = [49]; PMID 12754091; doi:10.1016/s0361-9230(03)00043-1; 49. Borlongan CV , Emerich DF . Facilitation of drug entry into the CNS via transient permeation of blood brain barrier: laboratory and preliminary clinical evidence from bradykinin receptor agonist, ||| ref 50 = [50]; PMID 22524793; doi:10.1021/mp3000937; 50. Zwanziger D , Hackel D , Staat C , Böcker A , Brack A , Beyermann M , A peptidomimetic tight junction modulator to improve regional analgesia . Mol Pharm . 2012; 9 : 1785 – 94 . 22524793 10.1021/ ||| ref 43-45 = [43]; PMID 25307218; doi:10.1016/bs.apha.2014.06.002; 43. Doolittle ND , Muldoon LL , Culp AY , Neuwelt EA . Delivery of chemotherapeutics across the blood-brain barrier: challenges and advances . Adv Pharmacol . 2014; 71 : 203 – 43 . 25307218 10.1016/b || [44]; 44. Smith QR . Quantitation of Blood-Brain Barrier Permeability . In: Neuwelt EA , editor. Implications of the Blood-Brain Barrier and Its Manipulation: Volume 1 Basic Science Aspects . Boston, MA : S || [45]; PMID 3930991; doi:10.1227/00006123-198509000-00004; 45. Neuwelt EA , Barnett PA , McCormick CI , Frenkel EP , Minna JD . Osmotic blood-brain barrier modification: monoclonal antibody, albumin, and methotrexate delivery to cerebrospinal fluid and brain", "details": "hypertonic mannitol solution; cited from earlier work"}, "[4]": {"target": "15N-labeled extracellular-1 (EC1) domain of human E-cadherin (human, UniProt P12830 155-367, 15N-labeled)", "sequence (P12830 155-367)": "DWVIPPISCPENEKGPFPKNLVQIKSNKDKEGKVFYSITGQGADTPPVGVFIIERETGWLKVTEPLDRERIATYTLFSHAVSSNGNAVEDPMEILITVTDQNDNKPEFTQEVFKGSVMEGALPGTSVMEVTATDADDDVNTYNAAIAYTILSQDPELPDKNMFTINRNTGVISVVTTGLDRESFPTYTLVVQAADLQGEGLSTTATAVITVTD", "assay": "NMR titration; 1H-15N HSQC (600 MHz) of 15N-labeled EC1 titrated with peptide; 20.0 mM potassium phosphate, 5.0 mM DTT, pH 6.0, 6% D2O; chemical shift perturbation; Kd from the titration curve of a single residue (Ile53 or Leu21)", "details": "both partners purified"}}, "note": "“Also recorded” adds a separate entry of the source. Bridges are numbered along the chain shown (N, C = ends)."}
{"molecule": "Cyclo(1,6)Ac-CSHAVC-NH2 (disulfide) [cHAVc3]", "values": [{"measurement": "EC1 binding and effect on cis-cadherin interactions", "setting": "EC1 domain of E-cadherin", "value": "increased the porosity of the paracellular route through binding to the EC1 domain followed by disruption of the cis-cadherin interactions"}, {"measurement": "EC1 binding site location", "setting": "EC1 domain of E-cadherin", "value": "found at the opposite side of ADT cyclic 5 (ADTC5) binding site; also recorded: dock on the surface of EC1 that interacts with the EC2 surface from a neighboring cadherin protein; also recorded: binds to the opposite side of ADTC5-binding site"}]}
{"molecule": "Ac-SHAVSS-NH2 [HAV6, reference compound]", "values": [{"measurement": "EC1 binding site location", "setting": "EC1 domain of E-cadherin", "value": "dock on the surface of EC1 that interacts with the EC2 surface from a neighboring cadherin protein"}, {"measurement": "inflammation and astrogliosis", "setting": "BBB [1]", "value": "did not induce inflammation and astrogliosis"}, {"measurement": "delivery of mAb to brain", "setting": "[2]; 150 kDa mAb", "value": "could not deliver mAb when administered together"}, {"measurement": "duration of BBB opening for transport of Gd-DTPA", "setting": "[2]; Gd-DTPA", "value": "less than 45 min"}, {"measurement": "delivery of Galbumin to brain", "setting": "[2]; delay in the administration of HAV6 and Galbumin", "value": "could not deliver Galbumin when there was a delay in the administration of HAV6 and Galbumin"}]}
{"molecule": "OC[C@@H](O)[C@@H](O)[C@H](O)[C@H](O)CO", "note": "[mannitol]", "values": [{"measurement": "BBB paracellular porosity by osmotic disruption", "setting": "BBB [3]", "value": "increase paracellular porosity of the intercellular junctions"}]}
{"molecule": "Ac-CDTPPVC-NH2 (disulfide 1-7; SMILES CC(=O)N[C@H]1CSSC[C@@H](C(N)=O)NC(=O)[C@H](C(C)C)NC(=O)[C@@H]2CCCN2C(=O)[C@@H]2CCCN2C(=O)[C@H]([C@@H](C)O)NC(=O)[C@H](CC(=O)O)NC1=O, Cyclo(1,7)Ac-CDTPPVC-NH2; ADT peptide designed from the bulge region of the cadherin EC1 domain; also called ADT cyclic 5; source: synthetic peptide (Fmoc solid-phase synthesis, HPLC purified, cyclized by air oxidation))", "note": "[Ala-Asp-Thr Cyclic 5 (ADTC5)]", "values": [{"measurement": "Kd", "setting": "[4]", "value": 35, "unit": "µM"}]}
{"molecule": "Ac-CDTPPYC-NH2 (disulfide 1-7; SMILES CC(=O)N[C@H]1CSSC[C@@H](C(N)=O)NC(=O)[C@H](Cc2ccc(O)cc2)NC(=O)[C@@H]2CCCN2C(=O)[C@@H]2CCCN2C(=O)[C@H]([C@@H](C)O)NC(=O)[C@H](CC(=O)O)NC1=O, Cyclo(1,7)Ac-CDTPPYC-NH2; derivative of ADTC5 with Val6 replaced by Tyr6; source: synthetic peptide (Fmoc solid-phase synthesis, HPLC purified, cyclized by air oxidation))", "note": "[ADTC9]", "values": [{"measurement": "Kd", "setting": "[4]", "value": 181, "unit": "µM"}]}
{"molecule": "Ac-CDTPPEC-NH2 (disulfide 1-7; SMILES CC(=O)N[C@H]1CSSC[C@@H](C(N)=O)NC(=O)[C@H](CCC(=O)O)NC(=O)[C@@H]2CCCN2C(=O)[C@@H]2CCCN2C(=O)[C@H]([C@@H](C)O)NC(=O)[C@H](CC(=O)O)NC1=O, Cyclo(1,7)Ac-CDTPPEC-NH2; derivative of ADTC5 with Val6 replaced by Glu6; source: synthetic peptide (Fmoc solid-phase synthesis, HPLC purified, cyclized by air oxidation))", "note": "[ADTC7]", "values": [{"measurement": "Kd", "setting": "[4]", "value": 64, "unit": "µM"}]}
